From US6380215B1, “Beta-alanine derivative and a process for the preparation thereof” (Fujisawa Pharmaceutical Co., Ltd, priority 1993, dated 2002)

Tested on: platelets in platelet rich plasma (PRP), aggregation induced by ADP
Test: Effect on Platelet Aggregation Induced by Adenosine Diphosphate (ADP)
Type: cell-based
Settings: dose required for complete inhibition of platelet aggregation; human PRP 3×10^8 platelets/ml, ADP final 2.5 μM, 37° C., aggregometer
Description: Test 1: Effect on Platelet Aggregation Induced by Adenosine Diphosphate (ADP)
Platelet rich plasma (PRP) which contains 3×10^8 platelets/ml was prepared from human blood. To the 225 μl of PRP, 25 μl of drug solution* was added, and then stirred for 2 minutes at 37° C. To the solution 5 μl of ADP (final 2.5 μM) was added as an aggregation inducer. Aggregation was measured by using an aggregometer (NBS HEMA-TRACER 801). Activity of inhibitor (test compound) was expressed as IC100 value i.e. dose required for complete inhibition of platelet aggregation.
Drug solution* — — — Test compound was dissolved in water.

SMILES	IC100
Cl.O=C(O)CCNC(=O)[C@@H]1CCCN(C(=O)CCC2CCNCC2)C1 [Example 21 (3), N-[(R)-1-{3-(4-piperidyl)propionyl}-3-piperidylcarbonyl]-β-alanine hydrochloride]	1000 nM

Tested on: not given
Test: not given
Settings: not given

melting point	SMILES
105 to 108 °C	C[C@H](CC(=O)O)NC(=O)[C@@H]1CCCN(C(=O)CCC2CCNCC2)C1.Cl
82 °C	COc1ccc(CCNC(=O)[C@H](CC(=O)O)NC(=O)[C@@H]2CCCN(C(=O)CCC3CCNCC3)C2)cc1.Cl
67 °C	Cl.O=C(O)CC(NC(=O)[C@@H]1CCCN(C(=O)CCC2CCNCC2)C1)c1ccccc1 (some centres unmarked)
156 to 157 °C	CCCCCC(=O)N[C@@H](CNC(=O)[C@@H]1CCCN(C(=O)CCC2CCNCC2)C1)C(=O)O.Cl
70 to 72 °C	Cl.O=C(O)CCNC(=O)C1CCCN(C(=O)CCC2CCNCC2)C1 (centres unmarked)
63 to 65 °C	Cl.O=C(O)CCNC(=O)C1CCN(C(=O)CCC2CCNCC2)CC1
73 °C	Cl.O=C(O)CCNC(=O)CC1CCCN(C(=O)CC2CCNCC2)C1 (centres unmarked)
63 °C	Cl.O=C(O)CCNC(=O)CC1CCCN(C(=O)C=C2CCNCC2)C1 (centres unmarked)
70 °C	C#C[C@H](CC(=O)OCc1oc(=O)oc1C)NC(=O)[C@@H]1CCCN(C(=O)CCC2CCNCC2)C1.Cl
79 °C	COC(=O)CCNC(=O)C1CCN(C(=O)CCC2CCN(C(=O)OC(C)(C)C)CC2)CC1
121 °C	COC(=O)CCNC(=O)CC1CCCN(C(=O)C=C2CCN(C(=O)OC(C)(C)C)CC2)C1 (centres unmarked)
75 °C	COC(=O)C[C@H](N)C(=O)NC1CCCN(C(=O)CCC2CCN(C(=O)OCc3ccccc3)CC2)C1.Cl (some centres unmarked)

SMILES	melting point
Cl.O=C(O)CCNC(=O)[C@@H]1CCCN(C(=O)CCC2CCNCC2)C1 [Example 21 (3), N-[(R)-1-{3-(4-piperidyl)propionyl}-3-piperidylcarbonyl]-β-alanine hydrochloride]	84 °C
